Test results reported in US20260041622A1, “Reduction of Signs of Skin Aging” (CarboCode S.A., priority 2022, published 2026).

Columns and labels:
[1] = tested on: Reconstructed Human Epidermis (RHE); experiment: Reconstructed Human Epidermis (RHE) treated topically with ceramide in base emulsion, LC-MS/MS proteomics; assay type: cell-based; settings: application on keratinocytes
Method: Material and methods: Reconstructed Human Epidermis (RHE) cell culture is used, as this system mimics the in vivo 3D structure of epidermal tissue as well as the conditions and processes that occur in normal epidermis. RHE are cultured using the medium provided by the manufacturer until analysis. RHE are maintained in survival for 24 hours, before RHE are topically treated with the respective ceramide in a base emulsion for 24 h. 3 RHE are treated with base emulsion alone and 3 more remained untreated as a control batch (Ctrl). RHE are incubated under classical cell culture conditions (37° C., 5% CO2).
Sample preparation and LC-MS/MS analysis: Protein is extracted using the Pierce Total Protein Extraction Kit (Thermo Fisher) according to manufacturer's recommendations. The protein is mixed with Laemmli buffer and heated to 37° C. for 30 min. Protein concentration is determined by the BCA method and standardized for all samples. The samples are separated by SDS-PAGE and digested with trypsin overnight. The peptides generated are acidified and separated. The mass spectra are queried using Proteome Discoverer (version 2.5). The resulting MS/MS data are queried against the Homo sapiens proteome UP000005640 (20371 reviewed entries). Results are filtered based on unique peptides >2, and global peptide scores. Analyses are performed using Proteome Discoverer 2.5 to check for overall sample quality.
Bioinformatics and statistical analysis: Proteomic analysis returned a mean total of 34961 high-quality peptides corresponding to a mean 2422 identifiable and quantifiable RHE proteins among conditions. A summary of proteins differentially expressed within conditions is provided in Annex 3. Proteins with a p-value 0.05 in at least one of the concentrations tested for a lipid are considered significant and used for pairwise comparisons. Relevant proteins are classified by their biological processes and associated pathways using the publicly available gene ontology (GO) database provided by the Gene Ontology Consortium and Reactome. Interactome analysis was performed using Cytoscape combined with STRING.

Laminin 5 = experiment: Laminin-5 immunostaining along the dermal-epidermal junction of living human skin explants; assay type: cell-based; settings: 0.1% CNS18 in basic emulsion, topical, 4 days of treatment
Method: (§1) Human skin explants of an average diameter of 12 mm (±1 mm) were prepared on an abdoplasty coming from a person with a phototype II according to Fitzpatrick skin colour classification. The explants were kept in survival in BEM culture medium (BIO-EC's Explants Medium) at 37° C. in a humid, 5%—CO2 atmosphere.
(§2) The tested products E and P were applied topically at a rate of […] per 1 cm^2 explant (≈2 mg/cm^2), and spread using a small spatula on day 0 (D0), D2, D4 and D6. […] The culture medium was half renewed (l ml per well) on D2, D4 and D6.
(§3) On D0, the 3 explants from the batch TO were collected and cut into two parts. Half was fixed in buffered formalin solution, […] was frozen at −80° C. On D4 and D8, 3 explants from the concerned batches were collected and treated in the same way as in D0.
After fixation for 24 hours in buffered formalin, the samples were dehydrated and impregnated in paraffin using a Leica PEARL dehydration automat. The samples were embedded using a Leica EG 1160 embedding station. 5-μm-thick sections were made using a Leica RM 2125 Minot-type microtome, and the sections were mounted on Superfrost® histological glass slides. The frozen samples were cut into 7-μm-thick sections using a Leica CM 3050 cryostat. Sections were then mounted on Superfrost® plus silanized glass slides. […]
The immunostaining was assessed by microscopical observation.

Collagen IV = Collagen IV immunostaining along the dermal-epidermal junction of living human skin explants; assay type: cell-based; settings: 0.1% CNS18 in basic emulsion, topical, 8 days of treatment
Method: as §1, §2, §3
After fixation for 24 hours in buffered formalin, the samples were dehydrated and impregnated in paraffin using a Leica PEARL dehydration automat. The samples were embedded using a Leica EG 1160 embedding station. […]
Collagen IV immunostaining was performed on frozen skin sections with a monoclonal anti-collagen IV antibody (Dako, ref M0785, clone CIV 22) diluted at 1:25 in PBS-BSA 0.3%-Tween 20 at 0.05% and incubated for 1 h at room temperature. […] The immunostaining was assessed by microscopical observation.

IL-1α = IL-1α ELISA quantification in BEM culture medium of skin explants; assay type: cell-based, human; settings: 0.05% GlcCNS18 in basic emulsion, topical
Method: Human skin explants of an average diameter of 11 mm (+1 mm) were prepared on an abdoplasty coming from a person with a II phototype according to Fitzpatrick skin colour classification. The explants were kept in survival in BEM culture medium (BIO-EC's Explants Medium) at 37° C. in a humid, 5%—CO2 atmosphere.
The tested products E and P were applied topically at a rate of 2 μL per 1 cm^2 explant (2 mg/cm^2), and spread using a small spatula on day 0 (D0), D1, D2 and D5. […] The culture medium was half renewed (1 ml per well) on D1, D2 and completely renewed (2 mL per well) on D5.
On D0, the 3 explants from the batch TO were collected and cut into two parts. One part was fixed in buffered formalin solution, and the other part was frozen at −80° C. for histological analysis. On D6, 4 explants from the concerned batches were collected and treated in the same way than in D0. The culture medium BEM of all batches was collected on D6 (2 mL per explant) and stored at −20° C. for dosages.
IL-1α dosage was performed with human IL-1α ELISA kit (Cayman, ref 583301). According to provider's guidelines, the culture medium and the IL-1α standard were incubated with acetylcholinesterase (AChE) Fab′ conjugate binding IL-1α in wells which contain coated IL-1α antibody, overnight at 4° C. […] Absorbance at 412 nm was measured using the M200Pro Tecan microplate reader and Magellan7 software. […]

[2] = 0.01%, 0.03%, 0.15% ceramide in vehicle vs vehicle, 24 h

regulation of NAD-dependent protein deacetylase sirtuin-2 (sirtuin-2) [1]	regulation of cytochrome c oxidase subunit 6C [1]	regulation of phosphomevalonate kinase [1]	Compound	regulation of ATP synthase subunit delta (mitochondrial) [1]	regulation of ATP synthase subunit g (mitochondrial) [1]	regulation of ECM1 (Extracellular Matrix Protein 1) [1, 2]	regulation of Syndecan-1 [1, 2]	regulation of LC3A (microtubule-associated proteins 1A/1B light chain 3A) [1]	regulation of protein S100-A2 [1]	regulation of protein S100-A9 [1]	regulation of ATP-dependent zinc metalloprotease YME1L1 [1]	regulation of NAD-dependent malic enzyme (mitochondrial) [1]	other results
up-regulation	upregulation	upregulation	CCCCCCCCCCCCCCCCCC(=O)NC(CO)C(O)CCCCCCCCCCCCCCC (centres unmarked) [Cer NG]	upregulation	upregulation	up-regulation							regulation of small proline-rich protein 2D [1]: up-regulation; regulation of Integrin alpha-3 [1, 2]: up-regulation
			CCCCCCCCCCCCCCCCCC(=O)NC(CO)C(O)C(O)CCCCCCCCCCCCCC (centres unmarked) [Cer NP]			up-regulation	up-regulation						regulation of Keratin-17 [1]: up-regulation
up-regulation			CCCCCCCCCCCCCC=CC(O)C(CO)NC(=O)CCCCCCCCCCCCCCCCC (centres unmarked) [Cer NS]			up-regulation	up-regulation	up-regulation	down-regulation	down-regulation			increase in expression of laminin-5 (Laminin 5): 26%; increase in expression of collagen IV (Collagen IV): 41%; regulation of Kallikrein-5 [1]: up-regulation; regulation of cornifin-B [1]: up-regulation; regulation of Laminin-5 [1, 2]: up-regulation; regulation of Plakophilin-2 [1, 2]: up-regulation
up-regulation	upregulation	upregulation	CCCCCCCCCCCCCC=CC(O)C(COC1OC(CO)C(OC2OC(CO)C(O)C(O)C2O)C(O)C1O)NC(=O)CCCCCCCCCCCCCCCCC (centres unmarked) [LacCer]	upregulation	upregulation	up-regulation	up-regulation				upregulation	upregulation	regulation of Glutathione S-transferase Mu 2 [1]: up-regulation; regulation of LC3B (microtubule-associated proteins 1A/1B light chain 3B) [1]: up-regulation; regulation of cystathione-gamma-lyase [1]: up-regulation; regulation of cytochrome b-cl complex subunit 9 [1]: upregulation; regulation of cytochrome c oxidase subunit 2 [1]: upregulation; regulation of cytochrome c oxidase subunit NDUFA4 [1]: upregulation

Compound	regulation of NAD-dependent protein deacetylase sirtuin-2 (sirtuin-2) [1]	regulation of cytochrome c oxidase subunit 6C [1]	regulation of phosphomevalonate kinase [1]	regulation of ATP synthase subunit delta (mitochondrial) [1]	regulation of ATP synthase subunit g (mitochondrial) [1]	regulation of ECM1 (Extracellular Matrix Protein 1) [1, 2]	regulation of Syndecan-1 [1, 2]	regulation of LC3A (microtubule-associated proteins 1A/1B light chain 3A) [1]	regulation of protein S100-A2 [1]	regulation of protein S100-A9 [1]	regulation of ATP-dependent zinc metalloprotease YME1L1 [1]	regulation of NAD-dependent malic enzyme (mitochondrial) [1]	other results
CCCCCCCCCCCCCC=CC(O)C(COC1OC(CO)C(O)C(O)C1O)NC(=O)CCCCCCCCCCCCCCCCC (centres unmarked) [GlcCer]		up-regulation	up-regulation	up-regulation	up-regulation			up-regulation	down-regulation	down-regulation	up-regulation	up-regulation	regulation of NADH dehydrogenase [ubiquinone]1 alpha subcomplex subunit 8 [1]: up-regulation; regulation of NADH dehydrogenase [ubiquinone] iron-sulfur protein 2 (mitochondrial) [1]: up-regulation; regulation of interleukin-1-alpha (IL-1α) [1]: down-regulation; regulation of nuclear factor NF-kappa-B p105 subunit [1]: down-regulation; IL-1α release (IL-1α; day 6): increased; IL-1α release (IL-1α; day 6, listed as GlcCNS): significant increase
